For the test, the target named is T1, hURAT1 (Homo sapiens, UniProt Q96S37).
T1 sequence (Q96S37 1-553): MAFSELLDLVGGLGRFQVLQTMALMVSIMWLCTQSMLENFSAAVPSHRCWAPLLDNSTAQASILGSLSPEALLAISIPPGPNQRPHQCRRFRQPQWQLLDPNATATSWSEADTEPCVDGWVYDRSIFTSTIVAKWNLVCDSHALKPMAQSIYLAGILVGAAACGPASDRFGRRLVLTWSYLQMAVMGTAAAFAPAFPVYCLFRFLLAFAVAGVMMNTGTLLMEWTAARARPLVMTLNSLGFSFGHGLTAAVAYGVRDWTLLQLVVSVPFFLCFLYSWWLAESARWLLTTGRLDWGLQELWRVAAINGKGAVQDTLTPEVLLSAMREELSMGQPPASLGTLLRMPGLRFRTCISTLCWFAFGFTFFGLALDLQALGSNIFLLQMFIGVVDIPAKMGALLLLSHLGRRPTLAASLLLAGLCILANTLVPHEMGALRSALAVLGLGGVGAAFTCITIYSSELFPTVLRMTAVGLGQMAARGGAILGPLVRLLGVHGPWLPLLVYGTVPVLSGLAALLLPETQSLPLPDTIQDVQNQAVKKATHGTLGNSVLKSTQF
Briefly: Inhibitory activity against URAT1: 14C-labelled uric acid uptake in HEK-293t cells stably expressing hURAT1. The class given is cell-based. Conditions: for IC50: HEK-293t/hURAT1 cells, 14C uric acid uptake, 5 minutes at room temperature, Ref Cpd 2, 83, Ref Cpd 3 and 129 are averages of head-to-head tests, read-out: IC50 (nM) of hURAT1 inhibitory activity. An excerpt:
• Test example: Determination of the inhibitory activity of compounds according to the present invention against URAT1 Experimental Materials • FBS (Invitrogen, Cat. No. 10099141) • Trypsin (Invitrogen, Cat. No. 25200056) • DPBS (Invitrogen, Cat. No. 14190250) • DMEM (Invitrogen, Cat. No. 10564) • Penicillin-Streptomycin (Invitrogen, Cat. No. 15070-063) • TransIT-293 Transfection Reagent (MIRUS BIO, Cat. No. MIR2706) • Opti-MEM® I Reduced Serum Medium (Invitrogen, Cat. No. 31985-070) • URAT1 plasmid (Genecopoeia, Cat. No. EX-T4563-M03) • Uric acid [8-14C] (ARC, Cat. No. ARC0513-250UCI) • Ultima Gold™ XR (PerkinElmer, Cat. No. 6013111) • Benzbromarone (J&K Scientific, Cat. No. 3562-84-3) • D-Gluconic acid sodium salt (Aladdin, Cat. No. 527-07-1) • Potassium D-gluconate (Aladdin, Cat. No. 299-27-4) • Calcium gluconate (Aladdin, Cat. No. 299-28-5) • DMSO (Sigma, Cat. No. D2650) • Tube, 15 ml (Greiner, Cat. No. 07030115) • Tube, 50 ml (BD Falcon, Cat. No. 352098) • Poly-D-lysine 96-well microplates (BD, Cat. No. 356461) • Isoplate-96 Microplate (PERKIN ELMER, Cat. No. 6005040) Experimental Method:
Cell Culture: • 1. The HEK-293t cells that expressed the stable expression of hURAT1 were cultured in DMEM medium containing 10% FBS and 1% P/S, and incubated overnight in the incubator at 37° C. under 5% carbon dioxide. • 2. the culture medium was removed, and the cells were washed with PBS, and then the pancreatin was added to digest for 2 minutes. After the cell is separated from the dish, 10 ml of medium was added to terminate digestion. • 3. The cells were placed into a centrifugal apparatus and centrifugated for 2 minutes at the speed of 1000 rpm, followed by the addition of fresh 10 mL medium to resuspend the cells, and calculate the number of cells. The number of cells was adjusted to 4×10^5 cells/mL. • 4. the above counted cells were inoculated into the 96-well plate at 100 μL/well. • 5. The 96-well plate with inoculated cells was placed in a 37° C. cell incubator and cultivated overnight.
The uric acid absorption experiment labeled with isotope C14: • 1. 5 mL of Cl-free HBSS buffer was added to a 15 mL centrifuge tube, followed by the addition of the uric acid labeled with C14, and the concentration of uric acid was 2 uCi/ml. • 2. The medium in the 96-well plate that was previously cultivated overnight was removed, and the plate was washed three times with […] preheated Cl-free HBSS buffer. • 3. The buffer in the well-washed 96-well plate was removed. • 4. […] Cl-free HBSS buffer containing C-14 labeled uric acid was added into each well in the cleaned 96-well plate, and then DMSO solution of the compound that needs to be tested was added. • 5. After the 96-well plate stood for 5 minutes at room temperature, all the liquid in it was removed. • 6. […] precooled Cl-free HBSS buffer was added to wash the plate three times. • 7. After the remained liquid in the plates was completely removed, 50 μL cell lysis was added to each well, and the plate was agitated on the mixer at a speed of 600 revolutions/min for 10 minutes. • 8. After 50 μL Ultima Gold™ XR scitillation cocktail fluid was added, the plate was continued to agitate for 10 minutes. The well-agitated plate was sealed, and the data was read on MicroBeta Trilux. • 9. The test compound was dissolved in DMSO, and DMSO at the same concentration was added to the HEK293/hURAT1 cell well without test compounds. […] The radiation value obtained from the well containing DMSO is considered to be 100% of the cell uptake. The IC50 values of compounds can be calculated by the inhibition rate at different concentrations.
Among them, reference compound 1 was synthesized according to the method described in patent WO 2011/159839 A2. Reference compound 2 and reference compound 3 were synthesized according to the method described in patent WO 2014/183555 A1, and they were head-to-head tested with compounds 83 and 129 respectively under the same conditions.

Structures are written as SMILES. pIC50: −log10 of the molar value. Several values for one entry are separate records, joined by “and”; a condition that tells them apart may be missing. Equal values may be shown once. Read-outs that look alike come from different tables or passages of the source.

By IC50 is commonly meant the point on the concentration scale where inhibition reaches its midpoint. As usually defined, the pIC50 is the negative decadic logarithm of the IC50, by convention in mol/L.

In the case of `CC(C)(Sc1ccnc2ccc(C(F)(F)F)cc12)C(=O)O` [Compound 96, 2-(6-trifluoromethylquinolin-4-ylthio)-2-methylpropanoic acid], the IC50 turned out to be 772 nM.

In the case of `CC(C)(Sc1ccncc1-c1ccc(C#N)c2ccccc12)C(=O)O` [Ref cpd 1 (RDEA3170), reference compound], the IC50 was found to be 154 nM.

As to `CC(C)(Sc1ccnc2ccc(-c3ccccc3F)cc12)C(=O)O` [Compound 25, 2-(6-(2-fluorophenyl)-quinolin-4-ylthio)-2-methylpropanoic acid], the IC50 was 812 nM.

`CCOc1cccc(-c2ccc3nccc(SC(CC)(CC)C(=O)O)c3c2)c1` [Compound 113, 2-(6-(3-ethoxy-phenyl)-quinolin-4-ylthio)-2-ethylbutanoic acid]: the IC50 was found to be 109 nM.

As for `CC(C)(Sc1ccnc2ccc(-c3ccccc3C(F)(F)F)cc12)C(=O)O` [Compound 37], the IC50 worked out at 325 nM.

On to `COc1ccccc1-c1ccc2nccc(SC(C)(C)C(=O)O)c2c1` [Compound 19, 2-(6-(2-methoxyphenyl)-quinolin-4-ylthio)-2-methylpropanoic acid], for which the IC50 was determined as 472 nM.

As for `CC(C)(Sc1ccnc2ccc(-c3ccc(C(F)(F)F)cc3)cc12)C(=O)O` [Compound 34, 2-(6-(4-(trifluoromethyl)phenyl)quinolin-4-ylthio)-2-methylpropanoic acid], the IC50 worked out at 4600 nM.

In the case of `CC(C)(Sc1ccnc2ccc(-c3cccnc3)cc12)C(=O)O` [Compound 3, 2-(6-(pyridin-3-yl)quinolin-4-ylthio)-2-methylpropanoic acid], the IC50 is 514 nM.

Regarding `COc1cc(-c2ccc3nccc(SC(C)(C)C(=O)O)c3c2)ccn1` [Compound 115, 2-(6-(2-methoxypyridin-4-yl)quinolin-4-ylthio)-2-methylpropanoic acid], the IC50 amounted to 79 nM.

Regarding `CCC(CC)(Sc1ccnc2ccc(-c3ccnc(OC)c3)cc12)C(=O)O` [Compound 116, 2-(6-(2-methoxypyridin-4-yl)quinolin-4-ylthio)-2-ethylbutanoic acid], the IC50 was 98 nM.

Consider `CC(C)(Sc1ccnc2ccc(-c3ccnc(F)c3)cc12)C(=O)O` [Compound 117, 2-(6-(2-fluoropyridin-4-yl)-quinolin-4-ylthio)-2-methylpropanoic acid], for which the IC50 was 272 nM.

`CCCC(CCC)(Sc1ccnc2ccc(-c3cccc(OC4CCC4)c3)cc12)C(=O)O` [Compound 110, 2-(6-(3-cyclobutyloxy-phenyl)-quinolin-4-ylthio)-2-propylpentanoic acid]: the IC50 worked out at 2860 nM.

As for `CCC(CC)(Sc1ccnc2ccccc12)C(=O)O` [Compound 129], the IC50 came to 201 nM.

Consider `CCC(CC)(Sc1ccnc2ccc(-c3cccc(OC4CC4)c3)cc12)C(=O)O` [Compound 112, 2-(6-(3-cyclopropyloxy-phenyl)-quinolin-4-ylthio)-2-ethylbutanoic acid], for which the IC50 was 147 nM.

Take `CCCC(CCC)(Sc1ccnc2ccc(Br)cc12)C(=O)O` [Compound 114, 2-(6-bromoquinolin-4-ylthio)-2-propylpentanoic acid]: the IC50 amounted to 203 nM.

`CC(C)(Sc1ccnc2ccc(Br)cc12)C(=O)O` [Compound 22, 2-((6-bromoquinolin-4-yl)thio)-2-methylpropanoic Acid]: the IC50 worked out at 159 nM.

For the molecule `O=C(O)C1(Sc2ccnc3ccc(Br)cc23)CCC1` [Ref Cpd 2, reference compound], the IC50 worked out at 138 nM. Besides, the pIC50 (average of the multiple head-to-head comparison tests, Table 2, read-out: Average (IC50 of multiple determinations)) is 6.86. In addition, the negative-log IC50 (pIC50) (single determinations of multiple head-to-head tests, Ref cpd 2 vs Cpd 83, read-out: Multiple determination data (IC50)) is 7.14 and 6.73 and 6.76 and 6.79 and 6.84 and 6.90 and 7.00.

For `CCCC(CCC)(Sc1ccnc2ccc(-c3cccc(OCC)c3)cc12)C(=O)O` [Compound 108, 2-(6-(3-ethoxy-phenyl)-quinolin-4-ylthio)-2-propylpentanoic acid], the IC50 came out at 523 nM.

In the case of `CC(C)(Sc1ccnc2ccc(-c3ccncc3)cc12)C(=O)O` [Compound 4, 2-(6-(pyridin-4-yl)quinolin-4-ylthio)-2-methylpropanoic acid], the IC50 was determined as 127 nM.

These data come from patent publication US10450274B2, “Quinoline compounds, preparation methods thereof, and uses thereof as urate transporter inhibitor drug” (HINOVA PHARMACEUTICALS INC., priority 2015, dated 2019).
